The values that follow come from patent US10703764B2, “Benzopiperazine compositions as BET bromodomain inhibitors” (FORMA Therapeutics, Inc., priority 2013, dated 2020).

The target in experiment [1] is T1, BRD4 BD2 (Homo sapiens, UniProt O60885).
T1 construct: made in house
Kind of experiment: AlphaScreen binding assay, BRD4 Bromodomain 2. An outline of the steps:
(§1)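 An AlphaScreen competition format was used with His-BRD4 BD1 or BD2 and biotin-H4 K5/8/12/16-acetyl peptide, each at matched final levels of 50 nM (BD1) or 100 nM (BD2). Incubation in HEPES/NaCl buffer with 0.1% BSA and 0.01% Triton X-100 ran ≥1 h before IC50 determination.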
(In general: Alpha assays give light when donor and acceptor beads are brought close together.)

Experiment [2] concerns the target T2, BRD4 BD1 (Homo sapiens, UniProt O60885).
T2 construct: made in house
The experiment can be described thus: AlphaScreen binding assay, BRD4 Bromodomain 1. The procedure, abridged: as §1

The subject of experiment [3] is MV4-11 cells. Kind of experiment: Oncology cell growth assay (3-day proliferation, CellTiter-Glo). The following applies: Homo sapiens, MV4-11, 72 h, AML cell line MV4-11, 72 hours, compounds grouped by IC50 range, read-out: MV4-11 IC50 (inhibition of proliferation, gIC50). It is filed as cell-based. The procedure, abridged: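 Compounds were serially diluted 3-fold in DMSO, giving final well concentrations from 10 down to 0.0045 μM. MV4-11 cells were then seeded at 3000 cells/well in RPMI 1640 with 10% FBS and incubated 72 hours. CellTiter-Glo signal was measured and gIC50 obtained by four-parameter logistic regression.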
On the technique in general: Cellular ATP, detected with luciferase, serves as a proxy for viable cell number.

For the molecule `CC(=O)N1c2ccc(-c3cnn(C4CC4)c3)cc2N(C(=O)Oc2ccccc2Cl)C[C@@H]1C` [Example I-257], the IC50 was below 50 nM in experiment [1], 100 to 1000 nM in experiment [2] and 100 to 500 nM in experiment [3].

With `COc1ccc(-c2ccc3c(c2)N(C(=O)OC2CCOCC2)C[C@H](C)N3C(C)=O)cc1NS(C)(=O)=O` [Example I-1272], the IC50 in experiment [1] lay in the range of 50 to 500 nM; in experiment [2], 100 to 1000 nM; in experiment [3], 100 to 500 nM.

As for `CNS(=O)(=O)c1cccc(-c2ccc3c(c2)N(C(=O)OC2CCOCC2)C[C@H](C)N3C(C)=O)c1` [Example I-1254], the IC50 was 50 to 500 nM in experiment [1], 100 to 1000 nM in experiment [2] and below 100 nM in experiment [3].

Turning to `CC(=O)N1c2ccc(-c3ccc(C(=O)N(C)CCN(C)C)cc3)cc2N(C(=O)OC(C)C)C[C@@H]1C` [Example I-539], the IC50 was 50 to 500 nM in experiment [1], 100 to 1000 nM in experiment [2] and 100 to 500 nM in experiment [3].

Take `CC(=O)N1c2ccc(-c3cnn(Cc4cccnc4)c3)cc2N(C(=O)C2CC2)C[C@@H]1C` [Example I-122, (S)-1-(4-(cyclopropanecarbonyl)-2-methyl-6-(1-(pyridin-3-ylmethyl)-1H-pyrazol-4-yl)-3,4-dihydroquinoxalin-1(2H)-yl)ethan-1-one]: the IC50 is below 50 nM in experiment [1], 100 to 1000 nM in experiment [2] and 100 to 500 nM in experiment [3].

On to `CC(=O)N1c2ccc(-c3cnn(CCC#N)c3)cc2N(C(=O)Oc2ccc(F)cc2)C[C@@H]1C` [Example I-1018], for which the IC50 in experiment [1] is below 50 nM; in experiment [2] it was below 100 nM; in experiment [3], 100 to 500 nM.

In the case of `CC(=O)N1c2ccc(-c3ccc(N4CCOCC4)cc3)cc2N(C(=O)C2CCC2)C[C@@H]1C` [Example I-1059], the IC50 in experiment [1] is 50 to 500 nM; in experiment [2], 1000 to 10000 nM; in experiment [3], 100 to 500 nM.

For the molecule `CCOC(=O)N1C[C@H](C)N(C(C)=O)c2ccc(-c3cccc(S(=O)(=O)C4CC4)c3)cc21` [Example I-1088], the results for the IC50 in experiment [1], in experiment [2] and in experiment [3] were 50 to 500 nM, 1000 to 10000 nM and above 500 nM, respectively.

For `CCOC(=O)N1C[C@H](C)N(C(C)=O)c2ccc(-c3ccc(S(=O)(=O)n4cccn4)cc3)cc21` [Example I-1117], the IC50 was 50 to 500 nM in experiment [1], 1000 to 10000 nM in experiment [2] and above 500 nM in experiment [3].

Take `CC(C)OC(=O)N1C[C@H](C)N(C(=O)C2CC2)c2ccc(-c3cnn(CC4COC4)c3)cc21` [Example I-643]: the IC50 in experiment [1] lay in the range of 50 to 500 nM; in experiment [2], 100 to 1000 nM; in experiment [3], 100 to 500 nM.

Consider `CC(=O)N1c2ccc(-c3ccc(S(=O)(=O)C4CC4)cc3)cc2N(C(=O)OC2CCOCC2)C[C@@H]1C` [Example I-1216], for which the IC50 in experiment [1] is 50 to 500 nM; in experiment [2], 100 to 1000 nM; in experiment [3] it was 100 to 500 nM.

Consider `CC(=O)N1c2ccc(-c3cnn(C4CCCS(=O)(=O)C4)c3)cc2N(C(=O)OC2CCCCC2)C[C@@H]1C` (stereo partly drawn) [Example I-1312], for which the IC50 is below 50 nM in experiment [1], 100 to 1000 nM in experiment [2] and 100 to 500 nM in experiment [3].

With `COC(=O)N1c2ccc(-c3ccc(C(=O)N4CC[C@@H](NC(C)=O)C4)cc3)cc2N(C(=O)OC(C)C)C[C@@H]1C` [Example I-569], the IC50 in experiment [1] fell in the range of 50 to 500 nM; in experiment [2], 100 to 1000 nM; in experiment [3] it was 100 to 500 nM.

Take `CC(=O)N1c2ccc(-c3ccc(C(=O)NCCN)cc3)cc2N(C(=O)c2ccco2)C[C@@H]1C` [Example I-426]: the figures for the IC50 in experiment [1], in experiment [2] and in experiment [3] were below 50 nM, 1000 to 10000 nM and 100 to 500 nM, respectively.

On to `CC(=O)N1c2ccc(-c3ccc(NS(C)(=O)=O)cc3)cc2N(C(=O)C2CC2)C[C@@H]1C` [Example I-349], for which the results for the IC50 in experiment [1], in experiment [2] and in experiment [3] were 50 to 500 nM, 100 to 1000 nM and 100 to 500 nM, respectively.

With `CC(=O)N1c2ccc(-c3cnn(CCO)c3)cc2N(C(=O)N(C)c2ccccc2)C[C@@H]1C` [Example I-1212], the IC50 was above 500 nM in experiment [1], above 10000 nM in experiment [2] and above 500 nM in experiment [3].

Regarding `CC(=O)N1c2ccc(-c3ccc(S(=O)(=O)NCCO)cc3)cc2N(C(=O)C2CC2)C[C@@H]1C` [Example I-1035], the IC50 in experiment [1] was 50 to 500 nM; in experiment [2] it was 1000 to 10000 nM; in experiment [3], above 500 nM.

Consider `CCOC(=O)N1C[C@H](C)N(C(C)=O)c2ccc(-c3ccc(S(=O)(=O)N(C)C)cc3)cc21` [Example I-1125], for which the IC50 in experiment [1] is 50 to 500 nM; in experiment [2] it was 1000 to 10000 nM; in experiment [3], 100 to 500 nM.

As for `CC(=O)N1c2ccc(-c3cccc(S(=O)(=O)N(C)C)c3)cc2N(C(=O)OC2CCOCC2)C[C@@H]1C` [Example I-1224], the IC50 in experiment [1] was 50 to 500 nM; in experiment [2], 100 to 1000 nM; in experiment [3], 100 to 500 nM.

`COc1ccccc1OC(=O)N1C[C@H](C)N(C(C)=O)c2ccc(-c3cnn(C4COC4)c3)cc21` [Example I-3, (S)-2-methoxyphenyl 4-acetyl-3-methyl-7-(1-(oxetan-3-yl)-1H-pyrazol-4-yl)-3,4-dihydroquinoxaline-1(2H)-carboxylate]: the figures for the IC50 in experiment [1], in experiment [2] and in experiment [3] were 50 to 500 nM, 100 to 1000 nM and below 100 nM, respectively.

In the case of `CC(C)OC(=O)N1C[C@H](C)N(C(=O)C2CC2)c2ccc(-c3cnc(N)cn3)cc21` [Example I-472], the IC50 in experiment [1] is above 500 nM; in experiment [2] it was 100 to 1000 nM; in experiment [3], above 500 nM.

For `CC(=O)N1c2ccc(-c3cnn(CC4(F)COC4)c3)cc2N(C(=O)C2CC2)C[C@@H]1C` [Example I-649], the IC50 is 50 to 500 nM in experiment [1], 100 to 1000 nM in experiment [2] and above 500 nM in experiment [3].

With `CC(=O)N1c2ccc(-c3cnn(C4CC4)c3)cc2N(C(=O)Oc2ccc(F)cc2)C[C@@H]1C` [Example I-261], the IC50 in experiment [1] was below 50 nM; in experiment [2], 100 to 1000 nM; in experiment [3], 100 to 500 nM.

In the case of `CNC(=O)c1ccc(-c2ccc3c(c2)N(C(=O)c2ccco2)C[C@H](C)N3C(C)=O)cc1` [Example I-824], the results for the IC50 in experiment [1], in experiment [2] and in experiment [3] were below 50 nM, 1000 to 10000 nM and 100 to 500 nM, respectively.

Turning to `CCS(=O)(=O)c1ccc(-c2ccc3c(c2)N(C(=O)OC(C)C)C[C@H](C)N3C(C)=O)cc1` [Example I-1030], the IC50 was 50 to 500 nM in experiment [1], 100 to 1000 nM in experiment [2] and 100 to 500 nM in experiment [3].

With `COC(=O)N1c2ccc(-c3ccc(C(=O)N4CC[C@@H](O)C4)cc3)cc2N(C(=O)OC(C)C)C[C@@H]1C` [Example I-577], the IC50 in experiment [1] is 50 to 500 nM; in experiment [2], 100 to 1000 nM; in experiment [3], above 500 nM.

In the case of `CC(=O)N1c2ccc(-c3cnn(Cc4c[nH]cn4)c3)cc2N(C(=O)C2CC2)C[C@@H]1C` [Example I-127, (S)-1-(6-(1-((1H-imidazol-4-yl)methyl)-1H-pyrazol-4-yl)-4-(cyclopropanecarbonyl)-2-methyl-3,4-dihydroquinoxalin-1(2H)-yl)ethanone], the IC50 in experiment [1] was below 50 nM; in experiment [2], 100 to 1000 nM; in experiment [3] it was above 500 nM.

For `CC(=O)N1c2ccc(-c3cnn(CCS(C)(=O)=O)c3)cc2N(C(=O)Oc2cccnc2)C[C@@H]1C` [Example I-1279], the IC50 in experiment [1] was 50 to 500 nM; in experiment [2] it was 100 to 1000 nM; in experiment [3] it was 100 to 500 nM.

With `CC(=O)N1c2ccc(-c3ccc4c(c3)N(C)S(=O)(=O)N4)cc2N(C(=O)C2CCC2)C[C@@H]1C` [Example I-1176], the IC50 is below 50 nM in experiment [1], 100 to 1000 nM in experiment [2] and above 500 nM in experiment [3].
